Values joined by “and” are separate entries in the source; they are usually repeats but may differ in a detail not shown here. Identical values can stand only once. Inconclusive results and toxic doses are left out. Rule for the calls: active = survival T/C of 150% or more; inactive = T/C below 125% in these data.
Test system: AKR/Lw mice, AKR lymphoma ip, median survival T/C
Assay: NCI In Vivo Anticancer Drug Screen. Data for tumor model Lymphoma AKR (Transplanted) (intraperitoneal) in AKR/Lw mice
Settings: endpoint: median survival time, higher = longer survival
Protocol: The antitumor activity of compounds was measured in mice bearing transplantable tumors. Survival or tumor size were measured and the results are expressed as the measurement made in the treated group (T) divided by the measurement made in the vehicle treated control group (C). The tumor model used in this assay is Lymphoma AKR (Transplanted) (intraperitoneal) in AKR/Lw mice

Measured: T/C

CS(=O)(=O)OCCCCOS(C)(=O)=O
inactive: dose: 0.5 mg/kg/injection, schedule: Q01DX009 (ip), vehicle: Klucel (hydroxypropylcellulose) (HPC) 100 % of control | dose: 0.75 mg/kg/injection, schedule: Q01DX009 (ip), vehicle: saline 112 % of control | dose: 1.0 mg/kg/injection, schedule: Q01DX009 (ip), vehicle: Klucel (hydroxypropylcellulose) (HPC) 120 % of control | dose: 1.5 mg/kg/injection, schedule: Q01DX009 (ip), vehicle: saline 116 % of control | dose: 2.0 mg/kg/injection, schedule: Q01DX009 (ip), vehicle: Klucel (hydroxypropylcellulose) (HPC) 120 % of control | dose: 2.5 mg/kg/injection, schedule: Q01DX009 (ip), vehicle: saline 112 % of control | dose: 3.0 mg/kg/injection, schedule: Q01DX009 (ip), vehicle: saline 108 % of control | dose: 3.75 mg/kg/injection, schedule: Q01DX009 (ip), vehicle: saline 100 % of control and 116 % of control | dose: 4.0 mg/kg/injection, schedule: Q01DX009 (ip), vehicle: Klucel (hydroxypropylcellulose) (HPC) 107 % of control | dose: 5.0 mg/kg/injection, schedule: Q01DX009 (ip), vehicle: Klucel (hydroxypropylcellulose) (HPC) 102 % of control | dose: 5.0 mg/kg/injection, schedule: Q01DX009 (ip), vehicle: saline 96 % of control | dose: 7.5 mg/kg/injection, schedule: Q01DX009 (ip), vehicle: saline 86 % of control and 89 % of control | dose: 8.0 mg/kg/injection, schedule: Q01DX009 (ip), vehicle: Klucel (hydroxypropylcellulose) (HPC) 100 % of control | dose: 8.0 mg/kg/injection, schedule: Q01DX009 (ip), vehicle: saline 115 % of control | dose: 10.0 mg/kg/injection, schedule: Q01DX009 (ip), vehicle: saline 104 % of control | dose: 10.0 mg/kg/injection, schedule: Q04DX003 (ip), vehicle: Klucel (hydroxypropylcellulose) (HPC) 104 % of control | dose: 12.5 mg/kg/injection, schedule: Q01DX001 (ip), vehicle: saline 102 % of control and 110 % of control (2×) | dose: 12.5 mg/kg/injection, schedule: Q01DX009 (ip), vehicle: Klucel (hydroxypropylcellulose) (HPC) 89 % of control | dose: 12.5 mg/kg/injection, schedule: Q01DX009 (ip), vehicle: saline 87 % of control | dose: 15.0 mg/kg/injection, schedule: Q01DX009 (ip), vehicle: saline 105 % of control | dose: 16.0 mg/kg/injection, schedule: Q01DX009 (ip), vehicle: saline 103 % of control | dose: 20.0 mg/kg/injection, schedule: Q01DX009 (ip), vehicle: saline 113 % of control | dose: 20.0 mg/kg/injection, schedule: Q04DX003 (ip), vehicle: Klucel (hydroxypropylcellulose) (HPC) 91 % of control | dose: 25.0 mg/kg/injection, schedule: Q01DX001 (ip), vehicle: saline 97 % of control and 100 % of control and 114 % of control | dose: 25.0 mg/kg/injection, schedule: Q01DX009 (ip), vehicle: Klucel (hydroxypropylcellulose) (HPC) 89 % of control | dose: 25.0 mg/kg/injection, schedule: Q01DX009 (ip), vehicle: saline 89 % of control | dose: 25.0 mg/kg/injection, schedule: Q04DX003 (ip), vehicle: other 108 % of control | dose: 25.0 mg/kg/injection, schedule: Q04DX003 (ip), vehicle: saline 101 % of control | dose: 30.0 mg/kg/injection, schedule: Q01DX009 (ip), vehicle: saline 104 % of control | dose: 37.5 mg/kg/injection, schedule: Q04DX003 (ip), vehicle: saline 90 % of control | dose: 40.0 mg/kg/injection, schedule: Q04DX003 (ip), vehicle: Klucel (hydroxypropylcellulose) (HPC) 100 % of control | dose: 50.0 mg/kg/injection, schedule: Q01DX009 (ip), vehicle: Klucel (hydroxypropylcellulose) (HPC) 89 % of control | dose: 50.0 mg/kg/injection, schedule: Q04DX003 (ip), vehicle: other 104 % of control | dose: 50.0 mg/kg/injection, schedule: Q04DX003 (ip), vehicle: saline 109 % of control | dose: 100.0 mg/kg/injection, schedule: Q01DX001 (ip), vehicle: saline 97 % of control and 105 % of control | dose: 100.0 mg/kg/injection, schedule: Q04DX003 (ip), vehicle: Klucel (hydroxypropylcellulose) (HPC) 100 % of control | dose: 100.0 mg/kg/injection, schedule: Q04DX003 (ip), vehicle: other 91 % of control | dose: 100.0 mg/kg/injection, schedule: Q04DX003 (ip), vehicle: saline 92 % of control | dose: 200.0 mg/kg/injection, schedule: Q01DX001 (ip), vehicle: saline 97 % of control | dose: 200.0 mg/kg/injection, schedule: Q04DX003 (ip), vehicle: Klucel (hydroxypropylcellulose) (HPC) 105 % of control | dose: 400.0 mg/kg/injection, schedule: Q04DX003 (ip), vehicle: Klucel (hydroxypropylcellulose) (HPC) 100 % of control | dose: 600.0 mg/kg/injection, schedule: Q01DX001 (ip), vehicle: Klucel (hydroxypropylcellulose) (HPC) 106 % of control
